Test results: patent US10479784B2, “Substituted pyrazin-2-amines as inhibitors of ATR kinase” (Vertex Pharmaceuticals Incorporated, priority 2008, dated 2019)

These compounds were tested against full-length ATR (Homo sapiens (Human), UniProt Q13535) (assay: ATR Inhibition Assay (radioactive-phosphate incorporation)). Details: read-out: ATR Ki.
Sequence of full-length ATR (Q13535 whole entry): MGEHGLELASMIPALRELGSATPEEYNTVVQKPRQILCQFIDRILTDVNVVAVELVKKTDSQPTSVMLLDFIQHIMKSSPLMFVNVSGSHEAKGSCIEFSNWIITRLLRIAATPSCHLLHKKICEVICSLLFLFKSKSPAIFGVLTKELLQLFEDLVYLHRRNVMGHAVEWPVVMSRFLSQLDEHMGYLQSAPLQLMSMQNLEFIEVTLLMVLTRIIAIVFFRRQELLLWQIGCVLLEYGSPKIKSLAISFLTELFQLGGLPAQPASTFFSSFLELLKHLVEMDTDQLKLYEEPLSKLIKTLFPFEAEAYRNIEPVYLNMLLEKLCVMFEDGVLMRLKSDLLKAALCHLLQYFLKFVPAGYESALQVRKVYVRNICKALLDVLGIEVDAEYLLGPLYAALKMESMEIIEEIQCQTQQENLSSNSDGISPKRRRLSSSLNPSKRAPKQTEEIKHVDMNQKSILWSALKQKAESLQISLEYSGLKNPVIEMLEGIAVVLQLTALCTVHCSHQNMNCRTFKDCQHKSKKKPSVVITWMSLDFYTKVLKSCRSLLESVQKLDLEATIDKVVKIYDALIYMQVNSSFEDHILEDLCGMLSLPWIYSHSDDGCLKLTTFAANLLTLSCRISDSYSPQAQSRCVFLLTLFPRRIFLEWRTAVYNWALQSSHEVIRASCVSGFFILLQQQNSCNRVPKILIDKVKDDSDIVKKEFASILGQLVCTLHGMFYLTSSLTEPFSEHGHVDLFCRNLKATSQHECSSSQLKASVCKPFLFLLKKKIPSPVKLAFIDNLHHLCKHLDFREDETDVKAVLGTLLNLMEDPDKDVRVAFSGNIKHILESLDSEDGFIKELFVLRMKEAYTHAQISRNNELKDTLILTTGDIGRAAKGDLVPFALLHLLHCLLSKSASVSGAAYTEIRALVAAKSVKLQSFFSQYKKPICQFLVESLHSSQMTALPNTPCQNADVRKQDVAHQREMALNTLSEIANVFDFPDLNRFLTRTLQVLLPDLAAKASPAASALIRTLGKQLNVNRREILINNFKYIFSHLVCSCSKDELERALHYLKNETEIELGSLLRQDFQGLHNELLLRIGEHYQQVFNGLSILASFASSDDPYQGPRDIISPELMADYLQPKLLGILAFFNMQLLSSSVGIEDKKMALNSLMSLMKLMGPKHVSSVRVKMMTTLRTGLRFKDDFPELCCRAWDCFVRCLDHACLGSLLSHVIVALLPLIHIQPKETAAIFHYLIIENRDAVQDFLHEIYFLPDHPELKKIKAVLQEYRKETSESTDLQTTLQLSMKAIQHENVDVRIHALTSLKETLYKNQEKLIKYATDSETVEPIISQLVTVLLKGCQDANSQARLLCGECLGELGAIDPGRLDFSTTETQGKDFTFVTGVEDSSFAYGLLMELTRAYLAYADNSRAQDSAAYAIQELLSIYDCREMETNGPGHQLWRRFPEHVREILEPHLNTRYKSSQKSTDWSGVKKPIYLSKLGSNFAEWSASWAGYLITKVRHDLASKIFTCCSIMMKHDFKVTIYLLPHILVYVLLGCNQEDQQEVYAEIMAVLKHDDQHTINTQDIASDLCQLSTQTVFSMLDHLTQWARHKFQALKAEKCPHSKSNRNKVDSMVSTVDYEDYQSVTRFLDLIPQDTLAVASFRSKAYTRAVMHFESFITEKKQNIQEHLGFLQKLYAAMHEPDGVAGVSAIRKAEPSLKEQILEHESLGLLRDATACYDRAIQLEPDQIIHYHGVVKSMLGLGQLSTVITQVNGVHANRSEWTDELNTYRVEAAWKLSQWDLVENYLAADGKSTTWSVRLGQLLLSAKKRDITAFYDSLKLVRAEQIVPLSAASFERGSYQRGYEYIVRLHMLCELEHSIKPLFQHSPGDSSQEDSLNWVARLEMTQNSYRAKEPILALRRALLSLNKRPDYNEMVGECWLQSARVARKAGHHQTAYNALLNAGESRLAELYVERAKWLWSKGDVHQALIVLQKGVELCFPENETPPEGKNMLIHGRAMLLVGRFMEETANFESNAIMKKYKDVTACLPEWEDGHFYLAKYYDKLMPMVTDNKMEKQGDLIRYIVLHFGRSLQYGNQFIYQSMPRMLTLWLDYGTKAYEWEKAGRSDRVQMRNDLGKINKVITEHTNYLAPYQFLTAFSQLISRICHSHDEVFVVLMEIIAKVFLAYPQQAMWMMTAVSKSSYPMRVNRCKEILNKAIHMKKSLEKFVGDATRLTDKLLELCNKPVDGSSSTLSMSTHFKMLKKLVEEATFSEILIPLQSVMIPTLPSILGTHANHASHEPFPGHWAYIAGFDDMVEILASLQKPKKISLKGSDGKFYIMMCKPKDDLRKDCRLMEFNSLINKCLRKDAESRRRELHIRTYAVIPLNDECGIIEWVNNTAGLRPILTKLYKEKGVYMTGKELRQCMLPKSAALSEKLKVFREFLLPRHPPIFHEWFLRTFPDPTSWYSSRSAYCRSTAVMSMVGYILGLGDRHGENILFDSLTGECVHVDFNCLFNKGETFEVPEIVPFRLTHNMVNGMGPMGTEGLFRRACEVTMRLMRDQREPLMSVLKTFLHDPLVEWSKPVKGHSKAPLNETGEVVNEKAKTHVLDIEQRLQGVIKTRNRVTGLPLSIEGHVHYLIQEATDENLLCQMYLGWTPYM
Format: biochemical
Outline: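 Ki(app) was derived by non-linear regression of background-corrected initial rates of 33P incorporation into an 800 μM target peptide, read by phosphocellulose filter scintillation counting. Reaction conditions: 5 nM full-length ATR, 10 μM [γ-33P]ATP, pH 7.5 Tris buffer with MgCl2 and DTT, 25 °C, 10-min preincubation, 24 h run.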
A Ki of 10 to 100 nM was found for `Nc1ncc(-c2cccnc2)nc1C(=O)Nc1ccc2[nH]ccc2c1` [Compound I-104, 3-amino-N-(1H-indol-5-yl)-6-(pyridin-3-yl)pyrazine-2-carboxamide] in this work. A Ki of at most 10 nM was found for `Nc1ncc(-c2ccc(C(=O)N3CCNC(C(F)(F)F)C3)cc2)nc1-c1nnc(-c2ccccc2)o1` (stereo not drawn) [IA-16] in this work. A Ki of 100 to 5000 nM was found for `CC(=O)Nc1nnc(-c2nc(-c3ccc(C(=O)N(C)C)cc3)cnc2N)o1` [IA-278, 4-[6-(5-acetamido-1,3,4-oxadiazol-2-yl)-5-amino-pyrazin-2-yl]-N,N-dimethyl-benzamide] in this work. A Ki of 100 to 5000 nM was found for `CN1CCC(NC(=O)c2ccc(-c3cnc(N)c(C(=O)Nc4ccccc4)n3)cc2)CC1` [Compound I-64, 3-amino-6-(4-(1-methylpiperidin-4-ylcarbamoyl)phenyl)-N-phenylpyrazine-2-carboxamide] in this work. A Ki of 10 to 100 nM was found for `Nc1ncc(-c2ccc(C(=O)NCCN3CCCC3)cc2)nc1-c1nc2ccccc2[nH]1` [III-6, 4-(5-amino-6-(1H-benzo[d]imidazol-2-yl)pyrazin-2-yl)-N-(2-(pyrrolidin-1-yl)ethyl)benzamide] in this work. A Ki of 10 to 100 nM was found for `NCC[S+]([O-])c1ccccc1-c1cnc(N)c(-c2nnc(-c3ccccc3)o2)n1` (stereo not drawn) [IA-261, 5-(2-(2-aminoethylsulfinyl)phenyl)-3-(5-phenyl-1,3,4-oxadiazol-2-yl)pyrazin-2-amine] in this work. A Ki of 100 to 5000 nM was found for `Nc1ncc(-c2ccc(C(=O)NCC3CCOCC3)cc2)nc1C(=O)Nc1ccccc1` [Compound I-69, 3-amino-N-phenyl-6-(4-((tetrahydro-2H-pyran-4-yl)methylcarbamoyl)phenyl)pyrazine-2-carboxamide] in this work. A Ki of 100 to 5000 nM was found for `Nc1ncc(-c2cccc(CO)c2)nc1-c1nnc(-c2ccccc2)o1` [IA-202, [3-[5-amino-6-(5-phenyl-1,3,4-oxadiazol-2-yl)pyrazin-2-yl]phenyl]methanol] in this work. A Ki of at most 10 nM was found for `CNCc1ccc(-c2cc(-c3nc(-c4ccc(S(=O)(=O)C5CCOC5)cc4)cnc3N)on2)c(F)c1` (stereo not drawn) [IIA-16, 3-[3-[2-fluoro-4-(methylaminomethyl)phenyl]isoxazol-5-yl]-5-(4-tetrahydrofuran-3-ylsulfonylphenyl)pyrazin-2-amine] in this work. A Ki of 100 to 5000 nM was found for `Nc1ncc(-c2ccc(N3CCOCC3)nc2)nc1-c1nc2ccccc2[nH]1` [Compound I-135, 3-(1H-benzo[d]imidazol-2-yl)-5-(6-morpholinopyridin-3-yl)pyrazin-2-amine] in this work. A Ki of at most 10 nM was found for `CC(C)S(=O)(=O)c1ccc(-c2cnc(N)c(-c3nnc(-c4ccccc4)o3)n2)c(C#N)c1` [IA-132, 2-[5-amino-6-(5-phenyl-1,3,4-oxadiazol-2-yl)pyrazin-2-yl]-5-isopropylsulfonyl-benzonitrile] in this work. A Ki of at most 10 nM was found for `CNCc1ccc(-c2nnc(-c3nc(-c4ccc(S(=O)(=O)C(C)CCOC)cc4)cnc3N)o2)cc1` (stereo not drawn) [IA-330, 5-[4-(3-methoxy-1-methyl-propyl)sulfonylphenyl]-3-[5-[4-(methylaminomethyl)phenyl]-1,3,4-oxadiazol-2-yl]pyrazin-2-amine] in this work. A Ki of 10 to 100 nM was found for `Nc1cccc(-c2nnc(-c3nc(-c4cccnc4)cnc3N)[nH]2)c1` [Compound I-140, 3-(5-(3-aminophenyl)-4H-1,2,4-triazol-3-yl)-5-(pyridin-3-yl)pyrazin-2-amine] in this work. A Ki of 10 to 100 nM was found for `Nc1ncc(-c2ccc(C(=O)N3CCCNCC3)cc2)nc1C(=O)Nc1ccc2c(c1)NNC2` [Compound V-28] in this work. A Ki of 10 to 100 nM was found for `Cc1ccc2nc(-c3nc(-c4ccc(C(=O)N5CCCNCC5)cc4)cnc3N)[nH]c2c1` [Compound I-153, (4-(5-amino-6-(6-methyl-1H-benzo[d]imidazol-2-yl)pyrazin-2-yl)phenyl) (1,4-diazepan-1-yl)methanone] in this work. A Ki of 100 to 5000 nM was found for `N#Cc1cccc(-c2cnc(N)c(C(=O)Nc3ccccc3)n2)c1` [Compound I-10, 3-amino-6-(3-cyanophenyl)-N-phenylpyrazine-2-carboxamide] in this work. A Ki of 10 to 100 nM was found for `N#Cc1ccc(-c2cnc(N)c(-c3nc4ccccc4[nH]3)n2)cc1` [Compound I-129, 4-(5-amino-6-(1H-benzo[d]imidazol-2-yl)pyrazin-2-yl)benzonitrile] in this work. A Ki of 10 to 100 nM was found for `CS(=O)(=O)Nc1cccc(-c2cnc(N)c(-c3nnc(-c4ccccc4)o3)n2)c1` [IA-144, N-[3-[5-amino-6-(5-phenyl-1,3,4-oxadiazol-2-yl)pyrazin-2-yl]phenyl]methanesulfonamide] in this work. A Ki of 10 to 100 nM was found for `Nc1ncc(-c2ccc(C(=O)N3CCC(N4CCCC4)CC3)cc2)nc1C(=O)Nc1ccccc1` [Compound I-71, 3-amino-N-phenyl-6-(4-(4-(pyrrolidin-1-yl)piperidine-1-carbonyl)phenyl) pyrazine-2-carboxamide] in this work. A Ki of 10 to 100 nM was found for `Cc1ccc2nc(-c3nc(-c4ccc(C(=O)N5CCC(N(C)C)CC5)cc4)cnc3N)[nH]c2c1` [III-2, (4-(5-amino-6-(6-methyl-1H-benzo[d]imidazol-2-yl)pyrazin-2-yl)phenyl)(4-(dimethylamino)piperidin-1-yl)methanone] in this work. A Ki of 10 to 100 nM was found for `CC(C)S(=O)(=O)c1ccc(-c2cnc(N)c(-c3nnc(C(=O)N4CCCC(N)C4)o3)n2)cc1` (stereo not drawn) [IA-98, [5-[3-amino-6-(4-isopropylsulfonylphenyl)pyrazin-2-yl]-1,3,4-oxadiazol-2-yl]-(3-amino-1-piperidyl)methanone] in this work. A Ki of at most 10 nM was found for `CNCc1ccc(-c2nnc(-c3nc(-c4ccc(S(=O)(=O)C(C)CN(C)C)cc4)cnc3N)o2)cc1` (stereo not drawn) [IA-324, 5-[4-[2-(dimethylamino)-1-methyl-ethyl]sulfonylphenyl]-3-[5-[4-(methylaminomethyl)phenyl]-1,3,4-oxadiazol-2-yl]pyrazin-2-amine] in this work. A Ki of at most 10 nM was found for `CNCc1ccc(-c2nnc(-c3nc(-c4ccc(C(=O)N(C)C)cc4)cnc3N)o2)cc1` [IA-281, 4-[5-amino-6-[5-[4-(methylaminomethyl)phenyl]-1,3,4-oxadiazol-2-yl]pyrazin-2-yl]-N,N-dimethyl-benzamide] in this work. A Ki of 100 to 5000 nM was found for `CNCc1ccc(NC(=O)c2nc(-c3ccc(S(C)(=O)=O)cc3)cnc2N)cc1` [VII-10] in this work. A Ki of 10 to 100 nM was found for `CN(C)C(=O)c1ccc(-c2cnc(N)c(-c3nnc(Nc4ccccc4Cl)o3)n2)cc1` [IA-151, 4-[5-amino-6-[5-(2-chloroanilino)-1,3,4-oxadiazol-2-yl]pyrazin-2-yl]-N,N-dimethyl-benzamide] in this work. A Ki of 100 to 5000 nM was found for `Nc1ncc(-c2ccccc2-c2cnco2)nc1-c1nnc(-c2ccccc2)o1` [IA-207, 5-(2-oxazol-5-ylphenyl)-3-(5-phenyl-1,3,4-oxadiazol-2-yl)pyrazin-2-amine] in this work. A Ki of 10 to 100 nM was found for `Nc1ncc(-c2ccc(C(=O)NC3CC3)cc2)nc1C(=O)Nc1ccccc1` [Compound I-51, 3-amino-6-(4-(cyclopropylcarbamoyl)phenyl)-N-phenylpyrazine-2-carboxamide] in this work. A Ki of 100 to 5000 nM was found for `Nc1ncc(-c2ccnc(N3CCNCC3)c2)nc1-c1nnc(-c2ccccc2)o1` [IA-271, 3-(5-phenyl-1,3,4-oxadiazol-2-yl)-5-(2-piperazin-1-yl-4-pyridyl)pyrazin-2-amine] in this work. A Ki of 10 to 100 nM was found for `COCCN(C)C(=O)c1ccc(-c2cnc(N)c(C(=O)Nc3ccccc3)n2)cc1` [Compound I-45, 3-amino-6-(4-((2-methoxyethyl)(methyl)carbamoyl)phenyl)-N-phenylpyrazine-2-carboxamide] in this work. A Ki of 100 to 5000 nM was found for `Nc1ncc(-c2cccc(O)c2)nc1-c1nc2ccccc2[nH]1` [Compound I-126, 3-(5-amino-6-(1H-benzo[d]imidazol-2-yl)pyrazin-2-yl)phenol] in this work.
